Laboratory results taken from patent US4782154A, “Isoquinoline derivatives” (Mitsui Toatsu Chemicals, Inc., priority 1986, dated 1988).

Test system: Mongrel dogs
Experiment: Recovery of LV dP/dtmax in propranolol-induced heart failure state, anesthetized dogs (Test Example 1)
Assay type: in vivo
Conditions: iv; for ED100: Canis lupus familiaris, dose required for recovering the reduction in LV dP/dtmax to the value before propranolol administration, anesthetized mongrel dogs; for Blood pressure: change in BP at ED100, variation coefficient relative to the values of the stable (heart failure) state; for Blood pressure / Number of heart beat: dogs; for Number of heart beat: change in HR at ED100, variation coefficient relative to the values of the stable (heart failure) state
Description: Mongrel dogs of either sex, weighing 8 to 12 kg, were anesthetized with sodium pentobarbital (30 mg/kg i.v.). The left ventricular pressure (LVP) was measured with a sensor tip transducer and the maximum rate of rise of LVP (LV dP/dtmax) was calculated by an electronic differentiator. Polyethylene cannulae were inserted into the femoral artery to measure systemic blood pressure (BP) and into the femoral veins for administration or infusion of chemicals. BP was measured with a pressure transducer and heart rate (HR) by a cardiotachometer from the pressure pulse. The respective parameters were simultaneously recorded on a multichannel polygraph.
To induce and maintain heart failure state, propranolol was administered in a bolus injection (4 mg/kg i.v.) followed by an infusion (0.1 mg/kg/min i.v.). […] The dose of tested chemicals required for recovering the reduction in the LV dP/dtmax to the value before the propranolol administration was determined and defined as an ED100. The changes in BP and HR at ED100 were expressed by the variation coefficient relative to the values of the stable state.

Structure (SMILES)	ED100 [mg/kg]	Blood pressure [%]	Number of heart beat
CCc1[nH]c(=O)c(C(C)=O)c2c1CC(c1ccncc1)CC2 (stereo not drawn) [Example 1, 4-acetyl-1-ethyl-7-(4-pyridyl)-5,6,7,8-tetrahydro-3(2H)isoquinolinone]	1	-32.1	+17.3%
CCCCc1[nH]c(=O)c(C(C)=O)c2c1CC(c1ccncc1)CC2 (stereo not drawn) [Example 2, 4-acetyl-1-butyl-7-(4-pyridyl)-5,6,7,8-tetrahydro-3-(2H)isoquinolinone]	3	-11.5	+18.3%
CC(=O)c1c2c(c(C3CC3)[nH]c1=O)CC(c1ccncc1)CC2 (stereo not drawn) [Example 3]	3	-27.8	+30.6%
CCC(=O)c1c2c(c(C)[nH]c1=O)CC(c1ccncc1)CC2 (stereo not drawn) [Example 4, 1-methyl-4-propionyl-7-(4-pyridyl)-5,6,7,8-tetrahydro-3(2H)isoquinolinone]	3	-18.0	+26.2%
CCCC(=O)c1c2c(c(C)[nH]c1=O)CC(c1ccncc1)CC2 (stereo not drawn) [Example 5, 4-butylyl-1-methyl-7-(4-pyridyl)5,6,7,8-tetrahydro-3(2H)isoquinolinone]	3	-20.2	+23.7%
CCCCC(=O)c1c2c(c(C)[nH]c1=O)CC(c1ccncc1)CC2 (stereo not drawn) [Example 6, 1-methyl-7-(4-pyridyl)5,6,7,8-tetrahydro-4-valeryl-3(2H)isoquinolinone]	3	-10.5	+19.8%
Cc1[nH]c(=O)c(C(=O)c2ccccc2)c2c1CC(c1ccncc1)CC2 (stereo not drawn) [Example 7, 4-benzoyl-1-methyl-7-(4-pyridyl)5,6,7,8-tetrahydro-3(2H)isoquinolinone]	3	-28.3	+29.6%
CCc1c2c(c(C)[nH]c1=O)CC(c1ccncc1)CC2 (stereo not drawn) [Example 8, 4-ethyl-1-methyl-7-(4-pyridyl)-5,6,7,8-tetrahydro-3(2H)isoquinolinone]	0.03	-22.5	+25.3%
CCCc1c2c(c(C)[nH]c1=O)CC(c1ccncc1)CC2 (stereo not drawn) [Example 9, 1-methyl-4-propyl-7-(4-pyridyl)-5,6,7,8-tetrahydro-3(2H)isoquinolinone]	0.3	-16.6	+14.4%
Cc1[nH]c(=O)c(C=O)c2c1CC(c1ccncc1)CC2 (stereo not drawn) [Example 10, 4-formyl-1-methyl-7-(4-pyridyl)-5,6,7,8-tetrahydro-3(2H)isoquinolinone]	3	-17.5	+24.2%
Cc1[nH]c(=O)c(C)c2c1CC(c1ccncc1)CC2 (stereo not drawn) [Example 11, 1,4-dimethyl-7-(4-pyridyl)-5,6,7,8-tetrahydro-3(2H)isoquinolinone]	0.3	-28.5	+21.0%
Cc1[nH]c(=O)c(C(C)O)c2c1CC(c1ccncc1)CC2 (stereo not drawn) [Example 12, 4-(1-hydroxyethyl)-1-methyl-7-(4-pyridyl)-5,6,7,8-tetrahydro-3(2H)isoquinolinone]	3	-19.7	+22.5%
Cc1[nH]c(=O)c(CO)c2c1CC(c1ccncc1)CC2 (stereo not drawn) [Example 13, 4-(hydroxymethyl)-1-methyl-7-(4-pyridyl)-5,6,7,8-tetrahydro-3(2H)isoquinolinone]	0.3	-2.6	+20.0%
Cc1[nH]c(=O)c(C(C)(C)O)c2c1CC(c1ccncc1)CC2 (stereo not drawn) [Example 14, 4-(2-(2-hydroxypropyl))-1-methyl-7-(4-pyridy)-5,6,7,8-tetrahydro-3(2H)isoquinolinone]	0.1	-9.3	+32.6%
C=C(C)c1c2c(c(C)[nH]c1=O)CC(c1ccncc1)CC2 (stereo not drawn) [Example 15, 4-isopropenyl-1-methyl-7-(4-pyridyl)-5,6,7,8-tetrahydro-3(2H)isoquinolinone]	0.03	-16.4	+28.6%
Cc1[nH]c(=O)c(C(F)(F)C(F)(F)F)c2c1CC(c1ccncc1)CC2 (stereo not drawn) [Example 16, 1-methyl-4-pentafluoroethyl-7-(4-pyridyl)-5,6,7,8-tetrahydro-3(2H)isoquinolinone]	3	-15.9	+29.1%
CCc1c2c(c(C)[nH]c1=O)CC(c1ccccn1)CC2 (stereo not drawn) [Example 17, 4-ethyl-1-methyl-7-(2-pyridyl)-5,6,7,8-tetrahydro-3(2H)isoquinolinone]	0.1	-2.1	+15.0%
Cc1[nH]c(=O)c(C(C)(C)O)c2c1CC(c1ccccn1)CC2 (stereo not drawn) [Example 18, 4-(2-(2-hydroxypropyl))-1-methyl-7-(2-pyridyl)-5,6,7,8-teterahydro-3(2H)isoquinolinone]	0.3	-8.3	+30.1%
C=C(C)c1c2c(c(C)[nH]c1=O)CC(c1ccccn1)CC2 (stereo not drawn) [Example 19, 4-isopropenyl-1-methyl-7-(2-pyridyl)-5,6,7,8-teterahydro-3(2H)isoquinolinon]	0.1	-15.9	+27.6%
